Measurements taken from PMC10305119, “Analogs of 6-Bromohypaphorine with Increased Agonist Potency for α7 Nicotinic Receptor as Anti-Inflammatory Analgesic Agents” (Marine Drugs, 2023).
Read-outs that look alike come from different tables or passages of the source.

Key:
α7 nAChR = tested on: α7 nAChR; set-up: method as in PMID 25775422; settings: cited from earlier work; for EC50: read-out: EC50 / potency for α7 nAChR
human α7 nAChR = target: T1, human α7 nAChR (Homo sapiens, UniProt P36544); experiment: Calcium fluorescence assay on α7 nAChR expressed in Neuro2a cells, in the presence of PNU120596; type: cell-based; settings: for EC50: human α7 nAChR in Neuro2a cells, PNU120596 10 μM present
T1 construct: expressed in transfected cells; host or cells: mouse neuroblastoma Neuro2a, transient co-transfection with Ric-3 (Ric3-pCMV6-XL5, OriGene) and the calcium sensor Case12
Description: A panel of the synthesized compounds was tested to determine their activity on α7 nAChR by fluorescence detection of cytoplasmic calcium rise (Figure 2a).
Mouse neuroblastoma Neuro2a cells were purchased from the Russian collection of cell cultures (Institute of Cytology, Russian Academy of Sciences, Saint Petersburg, Russia). Cells were cultured in Dulbecco’s modified Eagle’s essential medium (Paneco, Moscow, Russia) supplemented with 10% fetal bovine serum (Sigma, St. Louis, MO, USA). The cells one day before transfection were subcultured and plated at a density of 10,000 cells per well on a 96-well plate. The next day, Neuro2a cells were transiently transfected with plasmids coding α7 nAChR (human α7 nAChR-pCEP4) or its mutants, the chaperone Ric-3 (Ric3-pCMV6-XL5, OriGene, USA) and a fluorescent calcium sensor Case12 (pCase12-cyto vector, Evrogen, Russia) in molar ratio 4:1:1. Lipofectamine transfection protocol (Invitrogen, Waltham, MA, USA) was performed as recommended by the manufacturer. Transfected cells were grown at 37 °C in a CO2 incubator for 48 h.
Calcium […] assay was performed as described previously. Briefly, Transfected Neuro2a cells were grown on black 96-well plates (Corning, Somerville, MA, USA) at 37 °C in a CO2 incubator for 72 h, then growth medium was substituted with buffer containing 140 mM NaCl, 2 mM CaCl2, 2.8 mM KCl, 4 mM MgCl2, 20 mM HEPES, 10 mM glucose; pH 7.4.
Cells were incubated with the α7 nAChR positive allosteric modulator PNU120596 (10 μM, Tocris, Bristol, UK) for 20 min at room temperature before the addition of tested compounds. Plates were measured in microplate reader Hidex Sence (Hidex, Turku, Finland) using excitation at 485 nm and emission at 535 ± 10 nm. Fluorescence peak intensity in each well was expressed as a percentage of the maximal obtained response. Data files were analysed using Hidex Sence software (Hidex, Turku, Finland). Controls were run in the presence of 4 μM α-cobratoxin.
The R statistical programming environment “https://www.r-project.org/” (accessed on 16 June 2023) was used to analyze the results. Base R graphics and ggplot2 [54] graphical library were used for the data visualisation. Dose-response curves were fitted using “nlm” function and the following equation: response ~ (100/1 + (EC50/x)^n), where x denotes base 10 logarithm of ligand concentration in moles per liter (normalized to 1M) and n is the Hill coefficient. Libraries “rgl” “https://CRAN.R-project.org/package=rgl” (accessed on 16 May 2023) and “barplot3d” “https://cran.r-project.org/src/contrib/Archive/barplot3d/” (accessed on 16 May 2023) were used to generate the 3D bar chart shown on Figure 2b.
Figure 2 In vitro activity determination of the synthesized compounds. […] The receptor activation was detected as an increase in fluorescent signal in cell cytoplasm by fluorescence microscopy or as total fluorescence of the well in 96-well plate reader setup. Normalized fluorescence amplitude was plotted against base 10 logarithm of mole per liter concentration of the tested agonist and EC50 values were than calculated using dose-response equation. […] Substitutions in the 6th position of the indole ring (designated as X) were halogens (green shadow), hydrogen bond acceptors (yellow shadow) or hydrogen bond donors (blue shadow). Carboxy group modifications were comprised by free acid (Q = OH), ethers (Q = OCH3, OC2H5), and amides (Q = NH2, NHCH3).

[1] = tested on: CD86 expression on macrophages; experiment: Flow cytometry of CD86 protein on macrophages; type: cell-based, human; settings: 48 h incubation
Description: (§1) The effect of the above-listed compounds on the expression of the TLR4 receptor and the CD86 protein was studied by flow cytometry after 48 h incubation with macrophages. The interaction of bacterial endotoxins with the TLR4 receptor is known to activate the expression of several pro-inflammatory cytokine genes, while the co-stimulatory molecule CD86 plays an important role in […] inflammatory responses. A decrease in the expression of the TLR4 receptor was observed under the action of all tested compounds (Figure 4c,e), the rank order of these TLR4-suppressing effects was as follows: hypaphorine (14%) < PNU 282,987 (21%) < 6ID (31%).
(§2) Peripheral blood mononuclear cells (PBMCs) were separated by Ficoll-Paque PLUS density gradient centrifugation. PBMCs were placed in a sterile Petri dish and incubated at 37 °C for 2 h. Unattached cells were then removed by washing with PBS and substituted with fresh complete RPMI 1640 medium. To generate monocyte-derived macrophages (MDMs), 50 ng/mL GM-CSF was added to the isolated monocytes and cultured for 6 days to differentiate them into non-polarized MDMs.
(§3) Figure 4 The effects of PNU 282987, hypaphorine, and D-6-iodohypaphorine methyl ester (6ID) on macrophage membrane proteins expression. Cells were treated with these compounds for 48 h and then analyzed by flow cytometry. PNU 282,987 led to an increase in the (a) CD11b and (b) CD11c expression. (c): All tested compounds led to a decrease in TLR4 expression. (d): Macrophages stimulation with hypaphorine and 6ID promoted an increase in CD86 expression. Results obtained in three independent experiments on macrophages from different donors and presented as mean ± SD. One-way ANOVA tests with Tukey post hoc test: * p ˂0.05, ** p ˂ 0.01, **** p < 0.0001 in comparison with untreated cells.

[2] = target: T2, human α3-containing nAChRs (Homo sapiens, UniProt P32297); experiment: Calcium imaging of α3-containing nAChRs in SH-SY5Y cells (nicotine-induced calcium rise); type: cell-based; settings: for agonism on α3* nAChR (calcium response): compound alone
T2 construct: endogenous in cells; host or cells: human neuroblastoma SH-SY5Y
Description: Two of the studied compounds with high and medium agonist potency for α7 nAChR (6CF and 6ID, Table 1) were tested for activity toward α3* nAChR by calcium imaging.
Normalized data are presented as mean ± standard error. n = 6–7.

[3] = tested on: CD11b expression on macrophages; experiment: Flow cytometry of macrophage membrane protein CD11b; type: cell-based, human; settings: 48 h
Description: (§4) The selective agonist PNU 282,987 increased CD11b and CD11c protein expression by an average of 10% and 26%, respectively (Figure 4a,b).
as §2, §3

[4] = tested on: CD11c expression on macrophages; experiment: Flow cytometry of macrophage membrane protein CD11c; type: cell-based, human; settings: 48 h
Description: as §4, §2, §3

[5] = tested on: TLR4 expression on macrophages; experiment: Flow cytometry of TLR4 receptor on macrophages; type: cell-based, human; settings: 48 h incubation
Description: as §1, §2, §3

STAT3 phosphorylation = STAT3 phosphorylation in LPS-stimulated macrophages (flow cytometry); type: cell-based, human; settings: compound 1 h, then LPS 3 h; control MFI 49
Description: To gain an insight into the signaling induced by the tested compounds, ERK1/2 and STAT3 phosphorylation was checked. Macrophages were treated with tested compounds for 1 h, after which they were stimulated with LPS for 3 h.
as §2
Figure 5 Effects of the analyzed compounds on signaling pathways in LPS-stimulated macrophages. Cells were treated with PNU 282987, hypaphorine, or 6-iodohypaphorine methyl ester (6ID) for 1 h and then stimulated with LPS for 3 h. Phosphorylated ERK1/2 and STAT3 were quantified by flow cytometry with specific antibodies. […] (c): Representative histogram showing the increase in ERK 1/2 phosphorylation in comparison to control. The numbers in the histograms show the MFI ± SD (n = 3). MFI—geometrical mean fluorescence intensity. One-way ANOVA tests with Tukey post hoc test: * p ˂ 0.05, ** p ˂ 0.01, *** p < 0.001 in comparison with untreated cells. TEXT PRINTED IN THE PICTURE: (c) Control: PE-ERK 1/2 Phospho: 193.7±1.5 | (c) PNU 282987: PE-ERK 1/2 Phospho: 251.3±13.7 | (c) Hy: PE-ERK 1/2 Phospho: 246.0±15.7 | (c) 6ID: PE-ERK 1/2 Phospho: 273.7±8.1 DOUBTS OF THE COPYIST ABOUT THIS PICTURE: Panel c: no measure or unit is printed beside the numbers; the x-axis label "PE-ERK 1/2 Phospho" is used as the measure / "Control" is the untreated reference rather than a substance; it is included because a value is printed with it

T1 sequence (P36544 23-502): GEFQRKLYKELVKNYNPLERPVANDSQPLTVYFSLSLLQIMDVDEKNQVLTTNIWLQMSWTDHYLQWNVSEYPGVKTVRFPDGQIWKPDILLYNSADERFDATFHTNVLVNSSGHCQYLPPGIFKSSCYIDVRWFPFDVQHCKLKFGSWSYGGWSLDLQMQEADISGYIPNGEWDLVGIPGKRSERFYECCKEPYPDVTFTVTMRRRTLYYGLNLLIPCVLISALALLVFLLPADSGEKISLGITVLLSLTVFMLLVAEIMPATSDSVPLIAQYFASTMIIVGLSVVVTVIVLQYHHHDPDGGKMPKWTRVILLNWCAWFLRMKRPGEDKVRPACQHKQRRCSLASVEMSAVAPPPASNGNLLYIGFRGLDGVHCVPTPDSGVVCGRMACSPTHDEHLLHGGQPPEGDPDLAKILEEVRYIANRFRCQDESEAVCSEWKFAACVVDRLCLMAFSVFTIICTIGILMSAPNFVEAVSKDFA
T2 sequence (P32297 32-505): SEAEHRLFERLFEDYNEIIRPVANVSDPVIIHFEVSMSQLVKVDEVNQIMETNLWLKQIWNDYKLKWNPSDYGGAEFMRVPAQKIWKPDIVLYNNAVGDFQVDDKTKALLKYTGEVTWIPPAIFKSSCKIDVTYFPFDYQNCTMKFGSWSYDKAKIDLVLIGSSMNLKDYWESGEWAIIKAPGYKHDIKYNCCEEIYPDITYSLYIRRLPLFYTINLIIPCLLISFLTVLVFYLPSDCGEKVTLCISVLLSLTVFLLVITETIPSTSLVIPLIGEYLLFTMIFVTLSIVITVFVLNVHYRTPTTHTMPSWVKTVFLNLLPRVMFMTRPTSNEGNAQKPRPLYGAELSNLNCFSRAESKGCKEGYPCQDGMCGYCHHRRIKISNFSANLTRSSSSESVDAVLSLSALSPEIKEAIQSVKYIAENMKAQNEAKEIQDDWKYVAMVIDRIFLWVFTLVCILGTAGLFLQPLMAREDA

## C[N+](C)(C)[C@@H](Cc1c[nH]c2cc(Br)ccc12)C(=O)[O-] [6-bromohypaphorine]
α7 nAChR; as previously reported
  α7 nAChR agonistic activity: agonistic activity in high micromolar concentrations

## COC(=O)[C@H](Cc1c[nH]c2ccccc12)[N+](C)(C)C [Compound 4, methyl ester of L-hypaphorine]
Human α7 nAChR; read-out: EC50
  EC50: 27 µM
[1]
  increase in the expression of CD86: 26%

## C[N+](C)(C)C(Cc1c[nH]c2cc([N+](=O)[O-])ccc12)C(=O)[O-] (stereo not shown) [Compound 14, 6-nitrohypaphorine]
Human α7 nAChR; at concentrations up to 1 mM, PNU 120,596 present
  α7 nAChR agonistic activity: does not show any agonistic activity
Human α7 nAChR
  EC50: no agonistic activity

## COC(=O)[C@@H](Cc1c[nH]c2cc(C(F)(F)F)ccc12)[N+](C)(C)C [Compound 15, (D)-6-trifluoromethylhypaphorine methyl ester]
Human α7 nAChR; read-out: EC50
  EC50: 5.14 µM
[2]; listed as 6CF
  agonism on α3* nAChR (calcium response): Neither 6ID, which was most active agonist of α7 nAChR, nor 6CF showed detectable agonism on α3* nAChR at concentrations up to 30 µM
[2]; listed as 6CF3
  agonism on α3* nAChR (calcium response): does not evoke noticeable calcium response in concentrations 10, 1, and 0.1 μM
[2]; inhibition of nicotine (100 μM)-induced calcium rise
  IC50: 2.4 ± 1.2 µM

## O=C(N[C@H]1CN2CCC1CC2)c1ccc(Cl)cc1 [PNU 282,987]
[3]
  increase in CD11b protein expression: 10%
[4]
  increase in CD11c protein expression: 26%
[5]
  decrease in the expression of the TLR4 receptor: 21%
[1]
  increase in the expression of CD86: no effect
STAT3 phosphorylation
  STAT3 phosphorylation, MFI: increase in the phosphorylation

## Clc1ccc(C2CC3CCC2N3)cn1 (stereo not shown) [epibatidine]
α7 nAChR
  EC50: […]
